Article PMC3175004 (Aquatic toxicology (Amsterdam, Netherlands), 2010)
pIC50, pKi: −log10 of the molar value.

Legend:
[1] = target: T1, beluga AHR (Delphinapterus leucas, UniProt Q95LD9); format: binding
T1 sequence (Q95LD9 11-845): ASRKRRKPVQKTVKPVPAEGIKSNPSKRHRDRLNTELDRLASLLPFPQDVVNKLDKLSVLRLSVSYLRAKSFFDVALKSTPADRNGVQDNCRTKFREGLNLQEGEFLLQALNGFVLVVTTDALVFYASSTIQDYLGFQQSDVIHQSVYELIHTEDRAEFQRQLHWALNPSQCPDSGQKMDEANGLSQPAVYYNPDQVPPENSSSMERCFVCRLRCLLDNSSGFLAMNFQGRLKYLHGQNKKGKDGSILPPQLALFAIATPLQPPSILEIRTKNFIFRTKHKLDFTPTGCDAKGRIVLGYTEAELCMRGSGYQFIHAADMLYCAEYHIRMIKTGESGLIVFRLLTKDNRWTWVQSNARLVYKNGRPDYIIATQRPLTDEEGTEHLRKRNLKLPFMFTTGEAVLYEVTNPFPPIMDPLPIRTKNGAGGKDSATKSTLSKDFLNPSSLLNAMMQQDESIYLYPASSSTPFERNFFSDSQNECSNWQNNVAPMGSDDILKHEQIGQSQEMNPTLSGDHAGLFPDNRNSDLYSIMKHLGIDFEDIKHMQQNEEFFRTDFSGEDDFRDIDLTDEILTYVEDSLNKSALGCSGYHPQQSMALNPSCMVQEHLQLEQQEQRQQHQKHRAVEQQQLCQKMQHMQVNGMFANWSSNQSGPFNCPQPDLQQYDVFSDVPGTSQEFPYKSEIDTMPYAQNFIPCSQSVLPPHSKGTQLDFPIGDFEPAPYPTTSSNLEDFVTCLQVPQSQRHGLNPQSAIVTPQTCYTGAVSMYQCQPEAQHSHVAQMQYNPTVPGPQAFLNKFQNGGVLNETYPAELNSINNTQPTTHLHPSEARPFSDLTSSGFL

[2] = test system: mouse AHR (Ah^b-1 allele); format: binding; conditions: mouse REP vs rat REP
[3] = target: T2, mouse AHR (Ah^b-1 allele) (Mus musculus, UniProt P30561); format: binding
T2 sequence (P30561 10-848): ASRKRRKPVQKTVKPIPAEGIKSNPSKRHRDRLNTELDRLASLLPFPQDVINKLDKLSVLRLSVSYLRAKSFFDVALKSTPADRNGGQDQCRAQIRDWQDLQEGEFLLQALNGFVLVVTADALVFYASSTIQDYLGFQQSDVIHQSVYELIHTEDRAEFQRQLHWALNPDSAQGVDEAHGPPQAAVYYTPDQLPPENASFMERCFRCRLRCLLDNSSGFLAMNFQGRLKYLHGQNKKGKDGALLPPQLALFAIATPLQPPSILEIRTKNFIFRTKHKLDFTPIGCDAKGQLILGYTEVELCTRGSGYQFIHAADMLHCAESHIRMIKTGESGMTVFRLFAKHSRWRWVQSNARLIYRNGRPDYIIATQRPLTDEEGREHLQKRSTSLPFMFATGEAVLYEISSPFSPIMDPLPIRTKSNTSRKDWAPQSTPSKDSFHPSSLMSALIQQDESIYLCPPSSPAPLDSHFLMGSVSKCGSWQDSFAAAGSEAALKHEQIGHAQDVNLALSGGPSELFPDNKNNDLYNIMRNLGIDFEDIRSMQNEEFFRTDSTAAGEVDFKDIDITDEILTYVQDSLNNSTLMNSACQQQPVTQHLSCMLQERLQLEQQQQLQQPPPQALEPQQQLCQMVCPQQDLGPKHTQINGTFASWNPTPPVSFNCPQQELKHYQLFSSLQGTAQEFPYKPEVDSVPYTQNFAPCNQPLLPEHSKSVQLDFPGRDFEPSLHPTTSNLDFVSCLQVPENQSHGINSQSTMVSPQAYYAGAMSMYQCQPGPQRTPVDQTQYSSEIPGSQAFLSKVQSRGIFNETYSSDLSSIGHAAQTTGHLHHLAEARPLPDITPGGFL

[4] = test system: beluga AHR; conditions: determined by saturation binding; ref Jensen and Hahn 2001; cited from earlier work

Clc1ccc(-c2cc(Cl)c(Cl)c(Cl)c2)cc1 [PCB-81]
fold higher binding REP compared to rat ([1]; beluga REP vs rat REP): 14 fold
fold higher binding REP compared to rat [2]: 28 fold

Clc1ccc(-c2cc(Cl)c(Cl)cc2Cl)cc1Cl [PCB-118]
fold lower REP compared to rat ([1]; beluga REP vs rat REP): 15 fold
fold lower REP compared to rat [2]: 10 fold

Clc1ccc(-c2ccc(Cl)c(Cl)c2Cl)c(Cl)c1Cl [PCB-128]
inhibition of [3H]TCDD binding reached by the curves ([1]; beluga AHR, maximum reached by competition curves): 90%
inhibition of [3H]TCDD binding reached by the curves ([3]; mouse AHR, maximum reached by competition curves): 80%

Clc1cc2c(cc1Cl)Oc1cc(Cl)c(Cl)cc1O2 [TCDD, 2,3,7,8-tetrachlorodibenzo-p-dioxin, reference compound]
pIC50 [1]: 9.33
pKi [1]: 10.00
pKi [3]: 9.44

[3H]c1c(Cl)c(Cl)cc2c1Oc1cc(Cl)c(Cl)c([3H])c1O2 [[^3H]TCDD, 2,3,7,8-Tetrachloro[1,6-^3H]dibenzo-p-dioxin]
binding affinity for beluga AHR vs mouse AHR, fold higher [4]: ~ 2 fold
